According to the METLIN SMRT retention time set (Domingo-Almenara et al. 2019):

Experiment: gradient 5% acetonitrile 3 min, to 50% in 2 min, to 85% in 15 min, held 3 min, 100 µL/min
Settings: column: Zorbax Extend-C18 2.1 x 50 mm; eluents: water / acetonitrile, 0.1% formic acid
Procedure, shortened: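 The system's dead and dwell volumes were 40 μL and 900 μL, with a Zorbax Extend-C18 column (2.1 × 50 mm, 1.8 μm) run at 100 μL/min in water and acetonitrile containing 0.1% formic acid each. Pure standards were analyzed in mixtures of ~100 molecules by HPLC–quadrupole time-of-flight mass spectrometry in positive and negative ionization mode. Retention time was assigned from computationally picked, manually inspected adduct peaks.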

Row | RP-LC retention time | Structure (SMILES)
1 | 802 s | CCn1cc(CCNC(=O)Nc2cccc(Cl)c2F)c2cccnc21
2 | 795 s | Cn1cc(-c2cc3n(n2)CCC(=O)N3CCCC(=O)NCc2ccc3c(c2)OCO3)c2ccccc21
3 | 830 s | Cc1ccc(CNC(=O)c2ccc3c(=O)n(-c4ccccc4)c(N4CCCC4)nc3c2)o1
4 | 599 s | CCc1noc2nc(CCC(=O)NCCCN3CCN(C)CC3)nc(N3CCCCC3)c12
5 | 865 s | CC(C)N1CCCn2cc(S(=O)(=O)Nc3cccc(C(F)(F)F)c3)cc2C1=O
6 | 688 s | Cc1nnc(-c2nnc(NC3CCCCC3)c3ccccc23)o1
7 | 740 s | O=C(Cn1nc(C2CC2)cc1C(=O)N1CCCC1)Nc1ccccc1
8 | 838 s | O=C(CS(=O)Cc1cnn(-c2ccccc2)c1-n1cccc1)NCc1cccc(F)c1 (configuration not stated)
9 | 570 s | COc1cn(CC(=O)NCC2CCCO2)c(CN2CCC(C)CC2)cc1=O (configuration not stated)
10 | 1050 s | O=C(NCc1noc(-c2cccc(Cl)c2)n1)c1coc(-c2ccccc2)n1
11 | 844 s | CCc1cccc(NC(=O)Cn2c(=O)c3cc(C4CC4)nn3c3ncccc32)c1
12 | 716 s | COc1ccc(N2CCN(c3nc(C(=O)N4CCOCC4)cs3)CC2)cc1
13 | 782 s | CCOc1ccc(CC(=O)N2C[C@@H]3C[C@H](NC(=O)c4cccs4)[C@H]2C3)cc1
14 | 909 s | CCCCCC(=O)N1CCCCC1
15 | 900 s | CC1=C(c2ccc(Cl)cc2)S(=O)(=O)N=C1N1CCCN(C(=O)C(C)(C)C)CC1
16 | 994 s | CCn1nc(C(=O)Nc2nc3c(SC)cccc3s2)cc1C
17 | 911 s | Cc1cc(C(=O)NCCc2ccc(Cl)cc2)n(-c2ccccc2)n1
18 | 714 s | COc1ccc(C)cc1N(C)C(=O)Cn1ccc2c(=O)n(C)c(=O)n(C)c21
19 | 986 s | Fc1cccc(Cn2cc(-c3noc(-c4ccccc4)n3)nn2)c1
20 | 657 s | Cc1cc(=O)n(CC(=O)NCc2ccc(F)cc2F)c(N2CCCCC2)n1
21 | 734 s | O=C1C(Nc2ccccc2)=CC(=O)c2ncccc21
22 | 688 s | CCOc1ccc(Cl)cc1S(=O)(=O)N1CCC(C(=O)NCCCO)CC1
23 | 731 s | CNC(=O)C1CCCN(c2nc3ncn(CC(=O)Nc4ccc(C(C)C)cc4)c(=O)c3s2)C1 (configuration not stated)

Row | RP-LC retention time | Structure (SMILES)
24 | 636 s | Cc1cc(C(=O)NC2CC2)c2cc(C(C)C)ccc2n1
25 | 739 s | O=C(NCC1CCN(C(=O)Oc2ccccc2)CC1)c1ccsc1
26 | 550 s | O=C(N[C@@H]1CN(c2ccncn2)C[C@H]1CO)C1CCCC1
27 | 650 s | CO[C@H]1C(=O)N(C(C)C)[C@H]1C1CCN(C(=O)c2sc(C)nc2C)CC1
28 | 868 s | CC(NC(=O)c1cnc(-c2ccccc2)nc1-c1ccncc1)c1ccc(F)cc1 (configuration not stated)
29 | 783 s | O=C(Nc1nnc(C2CC(=O)N(c3ccc(F)cc3)C2)o1)c1ccc(Br)cc1 (configuration not stated)
30 | 794 s | O=C([C@@H]1C[C@H](F)CN1S(=O)(=O)c1cc(F)ccc1F)N1CCCCC1
31 | 807 s | COc1ccc(C)cc1NC(=O)N1CCC2(CC1)NC(=O)c1ccccc1N2C
32 | 737 s | Cc1ccc(-c2csc(NC(=O)CN3CCN(Cc4ccc5c(c4)OCO5)CC3)n2)cc1
33 | 817 s | COc1ccc(C(=O)N(Cc2cc(OC)c(OC)c(OC)c2)C2CCS(=O)(=O)C2)cc1Cl (configuration not stated)
34 | 1190 s | O=S(=O)(c1ccccc1F)N1CCc2nc(-c3ccc(Cl)cc3)ncc2C1
35 | 842 s | COc1ccc(NC(=O)c2cn(-c3cc(N(C)C)ncn3)cn2)c(OC)c1
36 | 649 s | CC(=O)Nc1c(C)cc(OCC(=O)O)cc1C
37 | 717 s | O=C1CCCc2cc(S(=O)(=O)N3CCC(C(=O)NCCc4cccs4)CC3)ccc2N1
38 | 662 s | CCCNC(=O)C1CCN(c2ccc(SCC(=O)Nc3cc(OC)ccc3OC)nn2)CC1
39 | 713 s | COc1ccc(N2CCN(c3ncc(C(=O)O)c(C)n3)CC2)cc1
40 | 666 s | O=C(NCCN1CCCCC1)C1CCN(c2nccnc2Sc2ccccc2)CC1
41 | 660 s | CCn1cc(S(=O)(=O)N2CCC(N3CC4(CCCCC4)C3c3ccccc3)CC2)cn1 (configuration not stated)
42 | 732 s | Cc1ccsc1-c1nc(-c2ccc3ncn(C)c3c2)no1
43 | 804 s | COc1ccc(Cn2nc3c(S(=O)(=O)N4CCCC4)cccn3c2=O)cc1
44 | 732 s | O=C(c1ccco1)N1CCCC(OCc2nc(C3CC3)no2)C1 (configuration not stated)
45 | 746 s | CCOc1ccccc1C(=O)N1CCCCC1c1nncn1CC1CC1 (configuration not stated)
46 | 875 s | Cc1ccc(N2CCC(NC(=O)Nc3ccc(C)cc3C)C2=O)cc1 (configuration not stated)

Row | RP-LC retention time | Structure (SMILES)
47 | 644 s | CCn1c(=O)c2ccn(CC(=O)Nc3cc(C)ccn3)c2n(CC)c1=O
48 | 768 s | COc1ccc(NC(=O)N2CCC(n3c(C(F)(F)F)nc4cccnc43)CC2)cc1OC
49 | 666 s | CCCn1cnc2cc(CNC(=O)Cc3c(Cl)cccc3Cl)ccc21
50 | 827 s | Cc1c(Cl)cccc1NC(=O)N1C[C@H](c2nc(-c3ccncc3)no2)[C@@H](C)C1
51 | 705 s | Cn1nccc1C(=O)N1CCCCCCNC(=O)[C@@H]2CCCC[C@@H]21
52 | 725 s | O=S(=O)(c1ccc(Cl)s1)N1CC(c2nc(-c3ncccn3)no2)C1
53 | 782 s | O=C(NCc1cccc(F)c1)N1C[C@@H]2C[C@H](NS(=O)(=O)c3ccccc3)[C@H]1C2
54 | 796 s | CCCN(CC1CCOC1)C(=O)NCc1ccc(C)cc1 (configuration not stated)
55 | 830 s | Cc1ccc(NC(=O)Cn2ccc3sccc3c2=O)cc1Cl
56 | 634 s | O=C(NCCCN1CCN(Cc2ccccc2)CC1)c1cn2c3c(ccc(Cl)c3c1=O)OCC2
57 | 853 s | O=C1[C@H]2CN(Cc3ccc(F)c(Cl)c3)C[C@H]2C(=O)N1Cc1ccc2c(c1)OCO2
58 | 762 s | Cn1cnc(S(=O)(=O)N2CCC(C(=O)Nc3ccc(F)c(Cl)c3)CC2)c1
59 | 948 s | COc1ccccc1-c1noc(Cn2ncn3nc(-c4cccs4)cc3c2=O)n1
60 | 569 s | Cc1nccn1CC(=O)N1C[C@@H](C)[C@H](c2nc(-c3ccncc3)no2)C1
61 | 1170 s | CCCN1C(=O)c2cc(S(=O)(=O)N3CCCCC3C)ccc2Oc2cccnc21 (configuration not stated)
62 | 978 s | Cc1oc(C2CCC2)nc1C(=O)NCc1ccc2c(c1)OCO2
63 | 698 s | OCCNc1nc(NCCc2cccs2)nc2c1cnn2-c1ccc(F)cc1
64 | 566 s | CCNC(=O)N1CCCN(S(C)(=O)=O)CC1
65 | 610 s | COCCOC1CCC12CCN(Cc1ccccc1C#N)CC2 (configuration not stated)
66 | 901 s | CCn1cc(C(=O)Nc2ccc(C)c(F)c2)c(S(=O)(=O)N2CCSCC2)n1
67 | 838 s | Cc1cc(N2CCN(C(=O)c3ccco3)CC2)n2nc(C)c(-c3ccc(Cl)cc3)c2n1
